From paper PMC10901556, “Conservation of Affinity Rather Than Sequence Underlies a Dynamic Evolution of the Motif-Mediated p53/MDM2 Interaction in Ray-Finned Fishes” (Molecular Biology and Evolution, 2024)
Several values for one entry are separate records, joined by “and”; a condition that tells them apart may be missing. Identical values can stand only once. Like-named read-outs stand apart in the source and are kept apart here. Blank lines part the entries; values can stand above or below the substance they belong to. Where no end group is shown, it is not given here.

Columns and labels:
[1] = biological target: T1, MDM2D.rerio SWIB domain (Danio rerio, UniProt O42354); assay: Fluorescence polarization displacement assay; format: binding
T1 construct: NusA-TEV-His6-PreScission (N, cleaved yes); made in house; host or cells: Escherichia coli BL21 (DE3)
T1 sequence (O42354 with tags, fused parts or gaps): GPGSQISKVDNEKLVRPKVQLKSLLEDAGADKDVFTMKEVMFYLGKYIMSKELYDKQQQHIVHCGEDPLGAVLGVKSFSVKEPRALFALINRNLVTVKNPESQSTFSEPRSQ

[2] = biological target: T2, D. rerio MDM2 (Danio rerio, UniProt O42354); assay: Isothermal titration calorimetry; format: binding; settings: 25 °C; for Kd / TΔS / ΔH: ITC
T2 construct: NusA-TEV-His6-PreScission site (N, cleaved yes); made in house; host or cells: Escherichia coli BL21 (DE3)
T2 sequence (O42354 with tags, fused parts or gaps): T1 sequence (O42354 with tags, fused parts or gaps)
Procedure: For ITC experiments, a MicroCal iTC200 instrument (GE Healthcare) was used, and the experiments were performed at 25 °C. The MDM2 protein and p53TAD peptides were dialyzed against the experimental buffer prior to experiments to avoid buffer mismatch. The concentration of D. rerio MDM2 in the cell was 11 μM and the concentration of p53TADD.rerio^17–32 and p53TADD.rerio^10–75 in the syringe was 118 and 116 μM, respectively. Results were analyzed using the built-in software and a 2-state binding model was assumed.

[3] = biological target: MDM2 SWIB domain, Lepisosteus oculatus; assay: Fluorescence polarization displacement assay; format: binding
[4] = biological target: MDM2 SWIB domain, Channa argus; assay: Fluorescence polarization displacement assay; format: binding; settings: for IC50 / Ki: C.arg MDM2 1500 nM
[5] = biological target: MDM2 SWIB domain, Maylandia zebra; assay: Fluorescence polarization displacement assay; format: binding; settings: for IC50 / Ki: M.zeb MDM2 2000 nM
[6] = biological target: human MDM2; settings: ref Åberg et al. (2018); read-out: KD (μM) p53TAD^full-length native (converted); cited from earlier work
Excerpt: Therefore, we expressed, purified, and subjected a longer p53TAD construct from D. rerio to binding experiments (Fig. 4a).

[7] = biological target: T1, MDM2D.rerio SWIB domain; settings: ref Mihalič et al. 2023; cited from earlier work
Excerpt: Abstract The transcription factor and cell cycle regulator p53 is marked for degradation by the ubiquitin ligase MDM2. The interaction between these 2 proteins is mediated by a conserved binding motif in the disordered p53 transactivation domain (p53TAD) and the folded SWIB domain in MDM2. […] The interaction between the proteins is mediated by a conserved binding motif in the intrinsically disordered N-terminal transactivation domain (TAD) of p53 and a SWIB domain in MDM2 (Fig. 1). The interaction leads to MDM2-catalyzed ubiquitination and proteasomal degradation of p53. Phosphorylation of p53TAD increases affinity for the general transcriptional coactivators CBP/p300 a ...

[8] = biological target: T3, MDM2H.sapiens SWIB domain (Homo sapiens, UniProt Q00987); assay: Fluorescence polarization displacement assay; format: binding
T3 construct: NusA-TEV-His6-PreScission (N, cleaved yes); made in house; host or cells: Escherichia coli BL21 (DE3)

[9] = labeled probe 15 nM, replicate 1, read-out: IC50 [M] (IT)
[10] = labeled probe 15 nM, replicate 3, read-out: IC50 [M] (IT)
[11] = average of the replicates, probe 15 nM, Kd for probe […], read-out: Ki [nM] Average
[12] = average of the replicates, probe 15 nM, Kd for probe […], read-out: Ki [µM] Average
[13] = calculated from IC50, Kd for probe […], probe 15 nM, replicate 1, read-out: Ki
[14] = calculated from IC50, Kd for probe […], probe 15 nM, replicate 2, read-out: Ki
[15] = calculated from IC50, Kd for probe […], probe 15 nM, replicate 3, read-out: Ki
[16] = mean of the replicates, probe 15 nM, read-out: IC50 [nM], mean of the replicates

MDM2 SWIB domain, Maylandia zebra, sequence (as listed by the source): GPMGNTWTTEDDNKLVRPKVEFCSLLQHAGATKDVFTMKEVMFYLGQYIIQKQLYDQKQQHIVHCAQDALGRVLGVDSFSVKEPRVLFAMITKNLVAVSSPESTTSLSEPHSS
MDM2 SWIB domain, Channa argus, sequence (as listed by the source): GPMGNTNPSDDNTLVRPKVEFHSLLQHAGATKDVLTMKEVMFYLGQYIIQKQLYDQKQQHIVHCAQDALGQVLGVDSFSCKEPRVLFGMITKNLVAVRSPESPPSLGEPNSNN
MDM2 SWIB domain, Lepisosteus oculatus, sequence (as listed by the source): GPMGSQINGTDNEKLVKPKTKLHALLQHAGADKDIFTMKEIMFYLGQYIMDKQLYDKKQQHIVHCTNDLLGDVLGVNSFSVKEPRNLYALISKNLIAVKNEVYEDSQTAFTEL
T3 sequence (Q00987 with tags, fused parts or gaps): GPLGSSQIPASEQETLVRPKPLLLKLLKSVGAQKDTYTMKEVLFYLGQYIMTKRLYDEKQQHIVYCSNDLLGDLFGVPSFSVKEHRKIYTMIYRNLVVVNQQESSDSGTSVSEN

Substance: GSQNDSQEFAELWEKNLISIQPPGGGSCWDIINDEEYLPGSFDPN [D.rer p53 P2 longer]
- IC50 [1]: 1.64e-06 M

Substance: GPMGMAQNDSQEFAELWEKNLISIQPPGGGSCWDIINDEEYLPGSFDPNFFGNVLEEQPQPSTLPPTST* [D.rer p53 P2 full, expressed whole TAD region of D. rerio p53]
- N (ITC stoichiometry) ([2]; first replicate): 0.79±0.01
- N (ITC stoichiometry) ([2]; second replicate): 0.74±0.01
- Kd ([2]; MDM2 11 μM in the cell, approximate value): ~100 nM
- TΔS ([2]; first replicate): 1.7 kcal/mol
- ΔH ([2]; first replicate): -7.8 ± 0.1 kcal/mol
- Kd ([2]; one of two replicates, the first printed for this construct in Fig. S5 (replicate number not assignable)): 100 ± 20 nM
- Kd ([2]; one of two replicates, the second printed for this construct in Fig. S5 (replicate number not assignable)): 100 ± 10 nM
- TΔS ([2]; second replicate): 2.0 kcal/mol
- ΔH ([2]; second replicate): -7.6 ± 0.1 kcal/mol
- Kd ([1]; FP displacement of FITC-p53TADhuman^15–26 (15 nM) from MDM2 (1 μM or 1.5 μM, both printed), KD from IC50, 20 mM sodium phosphate pH 7.4, 150 mM NaCl, 1 mM TCEP, read-out: KD): 49 ± 8 nM
- Kd ([1]; FP displacement, printed in nM (text, Fig. S4A), read-out: KD): 49 nM
- fold higher affinity than p53TAD^15–27D.rerio ([1]; ratio of KD values, FP displacement): more than 70 fold
- IC50 ([1]; read-out: IC50 [M] (IT)): 1.73e-06 M and 1.93e-06 M and 1.69e-06 M
- IC50 ([1]; read-out: IC50 [nM], mean of the replicates (cell without heading below the column)): 1.78e-06 M
- Ki ([1]; read-out: Ki): 42.6 nM and 65.1 nM and 39.2 nM
- Ki ([1]; read-out: Ki [nM] Average): 49 nM
- Ki ([1]; read-out: Ki [µM] Average): 49 nM

- Kd ([3]; FP displacement of FITC-p53TADhuman^15–26 (15 nM) from MDM2 (1 μM), KD from IC50, 20 mM sodium phosphate pH 7.4, 150 mM NaCl, 1 mM TCEP): 85 ± 5 nM
- IC50 ([3]; equals the mean of the replicates, read-out: IC50 [nM], mean): 2090 nM
- Ki ([3]; mean of the replicates (n = 3 or 6), read-out: Ki [nM] Average): 84.7 nM
- Ki ([3]; mean of the replicates (n = 3 or 6), read-out: Ki [µM] Average): 84.7 nM
- IC50 ([3]; replicate 1, MDM2 1000 nM, labeled probe 15 nM, read-out: IC50 [M] (IT)): 2170 nM
- Ki ([3]; replicate 1, calculated from IC50 with Kd for probe 78 nM, read-out: Ki): 90.7 nM
- IC50 ([3]; replicate 2, MDM2 1000 nM, labeled probe 15 nM, read-out: IC50 [M] (IT)): 2140 nM
- Ki ([3]; replicate 2, calculated from IC50 with Kd for probe 78 nM, read-out: Ki): 88.6 nM
- IC50 ([3]; replicate 3, MDM2 1000 nM, labeled probe 15 nM, read-out: IC50 [M] (IT)): 1960 nM
- Ki ([3]; replicate 3, calculated from IC50 with Kd for probe 78 nM, read-out: Ki): 74.9 nM
Substance: GPMGMADPEPEGLPLSQESFQELWNMVIVLHRAVPPENAQWPDLQSMLYTNELVPNAIDSLYEELEPHVSMPPQPMVSNPDGLAPSSST [L.ocu p53 full, expressed full-length spotted gar p53TAD]

Substance: GPMGMMEEQGFESLPLSQDSFRELWESVVTPSISTIPPAPEVPQDTMYMMLMNDQVLADGFDEKLFELPPESSTKDGVVPPSST [C.arg p53 P1 full, expressed full-length northern snakehead p53TAD paralog 1]
- IC50 [4, 9]: 1.82e-06 M
- IC50 ([4]; labeled probe 15 nM, replicate 2, read-out: IC50): 1.47e-06 M
- IC50 [4, 10]: 1.52e-06 M
- Kd ([4]; FP displacement of FITC-p53TADhuman^15–26 (15 nM) from MDM2 (1.5 μM), KD from IC50, 20 mM sodium phosphate pH 7.4, 150 mM NaCl, 1 mM TCEP): 100 ± 30 nM
- Ki [4, 11]: 98.6 nM
- Ki [4, 12]: 98.6 nM
- Ki [4, 13]: 153 nM
- Ki [4, 14]: 65.5 nM
- Ki [4, 15]: 77.8 nM
- IC50 [4, 16]: 1.6e-06 M

- Kd ([5]; FP displacement of FITC-p53TADhuman^15–26 (15 nM) from MDM2 (2 μM), KD from IC50, 20 mM sodium phosphate pH 7.4, 150 mM NaCl, 1 mM TCEP): 190 ± 20 nM
- IC50 [5, 9]: 3.27e-06 M
- IC50 ([5]; labeled probe 15 nM, replicate 2, read-out: IC50 [M] (IT)): 3.18e-06 M
- IC50 [5, 10]: 2.72e-06 M
- Ki [5, 11]: 188 nM
- Ki [5, 12]: 190 nM
- Ki [5, 13]: 218 nM
- Ki [5, 14]: 206 nM
- Ki [5, 15]: 140 nM
- IC50 [5, 16]: 3.06e-06 M
Substance: GPMGMAEQGFEDLQLSQNLPFSQDSFKELWDQLPVAESLSVSLDTISAVNSSTTGHDETWRPDGTMDMFQLINDQQLAEHFDEKLFELPNDALPKDGVTPPAST [M.zeb p53 P1 full, expressed full-length zebra mbuna p53TAD paralog 1]

Substance: Ac-EFAELWEKNLISIQP (N-terminus assumed) [D.rer p53 17-32 (G1K]
- N (ITC stoichiometry) ([2]; first replicate): 0.74±0.01
- N (ITC stoichiometry) ([2]; second replicate): 0.76±0.01
- TΔS ([2]; first replicate): 1.7 kcal/mol
- ΔH ([2]; first replicate): -7.2 ± 0.1 kcal/mol
- TΔS ([2]; second replicate): 1.2 kcal/mol
- ΔH ([2]; second replicate): -7.6 ± 0.1 kcal/mol

Substance: H.sap p53 full: expressed full-length human p53 transactivation domain
- Kd [6]: 0.1 µM

Substance: p53TADD.rerio (residues 15 to 26): peptide corresponding to the conserved binding motif in p53TADD.rerio, earlier study (KNLIIQPPGGGS; UniProt P79734 15-26, looked up, fragment)
- affinity in binding assay [7]: no affinity

Substance: Ac-SQEFAELWEKNL [D.rer p53 P2 short]
- IC50 [8]: 31800 nM
- Ki [8]: 4330 nM
- IC50 [1]: 3.39e-05 M
- Kd [1]: 3600 ± 300 nM
